Test results from ChEMBL document CHEMBL1629682, “Nitazoxanide inhibits biofilm formation by Staphylococcus epidermidis by blocking accumulation on surfaces” (Antimicrob Agents Chemother, 2010).
Converted amounts (≈) assume the structure as drawn. The source made the active and inactive calls. The calls are words filed in the database; no cut-off is given here.

Columns and labels:
[1] = system: Staphylococcus epidermidis; assay: Antimicrobial activity against Staphylococcus epidermidis 9142 at 1 to 5 ug/ml by microplate assay; format: functional, organism-based
[2] = system: Staphylococcus epidermidis; assay: Antimicrobial activity against Staphylococcus epidermidis clinical isolate 5179-R1 derived from PNAG negative, icaA::IS257 mutant 5179 strain produces a proteinaceous biofilm dependent on a truncated 140-kDa isoform of Aap assessed as inhibition of biofilm formation after 16 hrs by crystal violet staining; format: functional, organism-based
[3] = system: Staphylococcus epidermidis; assay: Antimicrobial activity against Staphylococcus epidermidis 9142 under aerobic condition by microdilution method; format: functional, organism-based
[4] = system: Staphylococcus epidermidis; assay: Antimicrobial activity against biofilm-positive Staphylococcus epidermidis clinical isolate ICS3 by microdilution method; format: functional, organism-based
[5] = system: Staphylococcus epidermidis; assay: Antimicrobial activity against Staphylococcus epidermidis 9142 expressing surface protein Aap assessed as inhibition of biofilm formation at 12.5 ug/ml by spectrophotometry in presence of calcium ions; format: functional, organism-based
[6] = system: Staphylococcus epidermidis; assay: Antimicrobial activity against Staphylococcus epidermidis 9142 at 25 ug/ml by microdilution method; format: functional, organism-based
[7] = system: Staphylococcus epidermidis; assay: Antimicrobial activity against Staphylococcus epidermidis 9142 expressing surface protein Aap assessed as inhibition of bacterial growth at 12.5 ug/ml by spectrophotometry in presence of 10 uM Zn ions; format: functional, organism-based
[8] = system: Staphylococcus epidermidis; assay: Antimicrobial activity against Staphylococcus epidermidis 9142 at 25 ug/ml under aerobic condition by microdilution method; format: functional, organism-based
[9] = system: Staphylococcus epidermidis; assay: Antimicrobial activity against biofilm-positive Staphylococcus epidermidis clinical isolate ICS5 assessed as inhibition of biofilm formation after 16 hrs by crystal violet staining; format: functional, organism-based
[10] = system: Staphylococcus haemolyticus; assay: Antimicrobial activity against Staphylococcus haemolyticus S33208 assessed as growth inhibition at 16 ug/ml by microdilution method; format: functional, organism-based
[11] = system: Staphylococcus epidermidis; assay: Antimicrobial activity against biofilm-positive Staphylococcus epidermidis clinical isolate ICS5 by microdilution method; format: functional, organism-based
[12] = system: Staphylococcus epidermidis; assay: Antimicrobial activity against Staphylococcus epidermidis 9142 assessed as growth inhibition at 8 ug/ml by microdilution method; format: functional, organism-based
[13] = system: Staphylococcus epidermidis; assay: Antimicrobial activity against biofilm-positive Staphylococcus epidermidis clinical isolate ICS2 assessed as inhibition of biofilm formation after 16 hrs by crystal violet staining; format: functional, organism-based
[14] = system: Staphylococcus epidermidis; assay: Antimicrobial activity against Staphylococcus epidermidis 5179 under aerobic condition by microdilution method; format: functional, organism-based
[15] = system: Staphylococcus epidermidis; assay: Antimicrobial activity against Staphylococcus epidermidis 9142 expressing surface protein Aap assessed as inhibition of biofilm formation at 12.5 ug/ml by spectrophotometry in presence of magnesium ions; format: functional, organism-based
[16] = system: Staphylococcus epidermidis; assay: Antimicrobial activity against Staphylococcus epidermidis 9142 assessed as inhibition of bacterial attachment to plastics at 10 ug/ml under static condition for 3 hrs by microscopic analysis; format: functional, organism-based
[17] = system: Staphylococcus epidermidis; assay: Antimicrobial activity against Staphylococcus epidermidis 9142 expressing surface protein Aap up to 10 hrs by microdilution method in presence of 10 uM Zn ions; format: functional, organism-based
[18] = system: Staphylococcus epidermidis; assay: Antimicrobial activity against Staphylococcus epidermidis 9142 assessed as growth inhibition at 16 ug/ml by microdilution method; format: functional, organism-based
[19] = system: Staphylococcus epidermidis; assay: Antimicrobial activity against Staphylococcus epidermidis CAV1005 at 25 ug/ml under aerobic condition by microdilution method; format: functional, organism-based
[20] = system: Staphylococcus epidermidis; assay: Antimicrobial activity against Staphylococcus epidermidis 9142 assessed as inhibition of bacterial primary attachment to plastics during 3 hrs at 15 ug/ml by microscopic analysis; format: functional, organism-based
[21] = system: Staphylococcus epidermidis; assay: Antimicrobial activity against biofilm-positive Staphylococcus epidermidis clinical isolate ICS4 assessed as inhibition of biofilm formation after 16 hrs by crystal violet staining; format: functional, organism-based
[22] = system: Staphylococcus epidermidis; assay: Antimicrobial activity against Staphylococcus epidermidis CAV1005 under microaeration condition at 10 ug/ml by microdilution method; format: functional, organism-based
[23] = system: Staphylococcus epidermidis; assay: Antimicrobial activity against biofilm-positive Staphylococcus epidermidis clinical isolate ICS4 by microdilution method; format: functional, organism-based
[24] = system: Staphylococcus epidermidis; assay: Antimicrobial activity against Staphylococcus epidermidis clinical isolate 5179-R1 derived from PNAG negative, icaA::IS257 mutant 5179 strain produces a proteinaceous biofilm dependent on a truncated 140-kDa isoform of Aap by microdilution method; format: functional, organism-based
[25] = system: Staphylococcus epidermidis; assay: Antimicrobial activity against Staphylococcus epidermidis 5179 at 25 ug/ml under aerobic condition by microdilution method; format: functional, organism-based
[26] = system: Staphylococcus epidermidis; assay: Antimicrobial activity against Staphylococcus epidermidis 9142 expressing surface protein Aap assessed as inhibition of bacterial growth at 12.5 ug/ml after 16 hrs by spectrophotometry in presence of 10 uM Zn ions; format: functional, organism-based
[27] = system: Staphylococcus epidermidis; assay: Antimicrobial activity against Staphylococcus epidermidis 9142 expressing surface protein Aap assessed as inhibition of biofilm formation at 12.5 ug/ml by spectrophotometry in presence of EDTA; format: functional, organism-based
[28] = system: Staphylococcus epidermidis; assay: Antimicrobial activity against biofilm-positive Staphylococcus epidermidis clinical isolate ICS3 assessed as inhibition of biofilm formation after 16 hrs by crystal violet staining; format: functional, organism-based
[29] = system: Staphylococcus epidermidis; assay: Antimicrobial activity against Staphylococcus epidermidis 5179 by microdilution method; format: functional
[30] = system: Staphylococcus epidermidis; assay: Antimicrobial activity against Staphylococcus epidermidis 9142 expressing surface protein Aap assessed as inhibition of biofilm formation at 12.5 ug/ml by spectrophotometry in presence of Zn ions; format: functional, organism-based
[31] = system: Staphylococcus epidermidis; assay: Antimicrobial activity against Staphylococcus epidermidis 9142 assessed as inhibition of bacterial accumulation on catheters treated for 12 hrs post biofilm formation measured after 24 hrs by crystal voilet staining; format: functional, organism-based
[32] = system: Staphylococcus epidermidis; assay: Antimicrobial activity against Staphylococcus epidermidis CAV1005 assessed as inhibition of biofilm formation after 24 hrs by microdilution method; format: functional; details: CAV1005, 24 h
[33] = system: Staphylococcus epidermidis; assay: Antimicrobial activity against Staphylococcus epidermidis 9142 assessed as inhibition of bacterial primary attachment to plastics at 15 ug/ml under shaking condition for 3 hrs by microscopic analysis; format: functional, organism-based
[34] = system: Staphylococcus epidermidis; assay: Antimicrobial activity against biofilm-positive Staphylococcus epidermidis clinical isolate ICS1 by microdilution method; format: functional, organism-based
[35] = system: Staphylococcus hominis; assay: Antimicrobial activity against Staphylococcus hominis F13532 assessed as inhibition of biofilm formation after 24 hrs by microdilution method; format: functional; details: F13532, 24 h
[36] = system: Staphylococcus epidermidis; assay: Antimicrobial activity against Staphylococcus epidermidis 9142 under microaeration condition at 10 ug/ml by microdilution method; format: functional, organism-based
[37] = system: Staphylococcus epidermidis; assay: Antimicrobial activity against Staphylococcus epidermidis 9142 by microdilution method; format: functional
[38] = system: Staphylococcus epidermidis; assay: Antimicrobial activity against Staphylococcus epidermidis 5179 under microaeration condition at 10 ug/ml by microdilution method; format: functional, organism-based
[39] = system: Staphylococcus epidermidis; assay: Antimicrobial activity against Staphylococcus epidermidis CAV1005 under aerobic condition by microdilution method; format: functional, organism-based
[40] = system: Staphylococcus epidermidis; assay: Antimicrobial activity against biofilm-positive Staphylococcus epidermidis clinical isolate ICS1 assessed as inhibition of biofilm formation after 16 hrs by crystal violet staining; format: functional, organism-based
[41] = system: Staphylococcus epidermidis; assay: Antimicrobial activity against Staphylococcus epidermidis 9142 assessed as inhibition of bacterial attachment to plastics at 15 ug/ml under static condition for 3 hrs by microscopic analysis in presence of 10 uM Zn ions; format: functional, organism-based
[42] = system: Staphylococcus haemolyticus; assay: Antimicrobial activity against Staphylococcus haemolyticus S33208 assessed as inhibition of biofilm formation after 24 hrs by crystal violet staining; format: functional, organism-based
[43] = system: Staphylococcus epidermidis; assay: Antimicrobial activity against Staphylococcus epidermidis 9142 assessed as inhibition of bacterial attachment to plastics at 15 ug/ml under static condition for 3 hrs by microscopic analysis; format: functional, organism-based
[44] = system: Staphylococcus epidermidis; assay: Antimicrobial activity against Staphylococcus epidermidis 9142 assessed as inhibition of bacterial accumulation on catheters after 24 hrs by catheter adherence model; format: functional, organism-based
[45] = system: Staphylococcus epidermidis; assay: Antimicrobial activity against Staphylococcus epidermidis CAV1005 by microdilution method; format: functional
[46] = system: Staphylococcus haemolyticus; assay: Antimicrobial activity against Staphylococcus haemolyticus S33208 assessed as growth inhibition at 8 ug/ml by microdilution method; format: functional, organism-based
[47] = system: Staphylococcus epidermidis; assay: Antimicrobial activity against Staphylococcus epidermidis 9142 assessed as inhibition of biofilm formation after 24 hrs by crystal violet staining; format: functional, organism-based
[48] = system: Staphylococcus epidermidis; assay: Antimicrobial activity against biofilm-positive Staphylococcus epidermidis clinical isolate ICS2 by microdilution method; format: functional, organism-based
[49] = system: Staphylococcus epidermidis; assay: Antimicrobial activity against Staphylococcus epidermidis 9142 expressing surface protein Aap by microdilution method in presence of 10 uM Zn ions; format: functional
[50] = Plasma protein binding in healthy volunteers at […], po administered as single dose; format: ADME, organism-based; parameters: route oral; details: human, read-out: PPB (converted)
[51] = Aqueous solubility of the compound; format: physicochemical

## CC(=O)Oc1ccccc1C(=O)Nc1ncc([N+](=O)[O-])s1 [NITAZOXANIDE]
[1]
  Activity: Active
[2]
  inhibition: Active
[3]
  Activity: Dose-dependent effect
[4]
  IC50: 1 µg/mL (≈ 3.25 µM)
  MIC: 16 µg/mL (≈ 52.1 µM)
[5]
  Activity: Active
[6]
  Activity: Active
[7]
  Activity: Active
[8]
  Activity: Active
[9]
  inhibition: Active
[10]
  Activity: Active
[11]
  IC50: 1 µg/mL (≈ 3.25 µM)
  MIC: 16 µg/mL (≈ 52.1 µM)
[12]
  Activity: Active
[13]
  inhibition: Active
[14]
  Activity: Dose-dependent effect
[15]
  Activity: Active
[16]
  Activity: Active
[17]
  Activity: Active
[18]
  Activity: Active
[19]
  Activity: Active
[20]
  Activity: Active
[21]
  inhibition: Active
[22]
  Activity: Active
[23]
  IC50: 1 µg/mL (≈ 3.25 µM)
  MIC: 16 µg/mL (≈ 52.1 µM)
[24]
  IC50: 1 µg/mL (≈ 3.25 µM)
  MIC: 16 µg/mL (≈ 52.1 µM)
[25]
  Activity: Active
[26]
  Activity: inactive
[27]
  Activity: inactive
[28]
  inhibition: Active
[29]
  MIC: 8 µg/mL (≈ 26 µM)
[30]
  Activity: inactive
[31]
  Activity: inactive
[32]
  MIC: > 32 µg/mL
[33]
  Activity: Active
[34]
  IC50: 1 µg/mL (≈ 3.25 µM)
  MIC: 16 µg/mL (≈ 52.1 µM)
[35]
  MIC: > 32 µg/mL
[36]
  Activity: Active
[37]
  MIC: 8 µg/mL (≈ 26 µM)
[38]
  Activity: Active
[39]
  Activity: Dose-dependent effect
[40]
  inhibition: Active
[41]
  Activity: Active
[42]
  Activity: Dose-dependent effect
[43]
  Activity: Active
[44]
  Activity: Dose-dependent effect
[45]
  MIC: 8 µg/mL (≈ 26 µM)
[46]
  Activity: Active
[47]
  Activity: Dose-dependent effect
[48]
  IC50: 1 µg/mL (≈ 3.25 µM)
  MIC: 16 µg/mL (≈ 52.1 µM)
[49]
  MIC: 16 µg/mL

## O=C(Nc1ncc([N+](=O)[O-])s1)c1ccccc1O [TIZOXANIDE]
[1]
  Activity: Active
[3]
  Activity: Dose-dependent effect
[8]
  Activity: Active
[14]
  Activity: Dose-dependent effect
[19]
  Activity: Active
[25]
  Activity: Active
[29]
  MIC: 8 µg/mL (≈ 30.2 µM)
[50]
  fraction unbound: 0.025
[37]
  MIC: 8 µg/mL (≈ 30.2 µM)
[39]
  Activity: Dose-dependent effect
[45]
  MIC: 8 µg/mL (≈ 30.2 µM)

## Cl.NCCOc1ccccc1C(=O)Nc1ncc([N+](=O)[O-])s1
[51]
  solubility: 400 µg/mL
